Test results as given in ChEMBL document CHEMBL1136405, “Acyclic N-(azacycloalkyl)bisindolylmaleimides: isozyme selective inhibitors of PKCbeta” (Bioorg Med Chem Lett, 2003).

Tests used:
[1] = Inhibition of cAMP dependent protein kinase catalytic subunit of bovine heart; design: species or system Bos taurus
CaM kinase II = CaM kinase II (Homo sapiens, UniProt Q13557+Q13555+Q13554+Q9UQM7); assay: Inhibition of purified mammalian brain [Ca(2+)]/Calmodulin dependent kinase
[2] = Inhibition of purified rat brain casein kinase II
Protein kinase C (PKC) = assay: Inhibition of purified rat brain protein kinase C (RB-PKC)
[3] = target: T1, Protein kinase C zeta type (Homo sapiens, UniProt Q05513); assay: Inhibition of Protein kinase C zeta
T1 sequence (Q05513 whole entry): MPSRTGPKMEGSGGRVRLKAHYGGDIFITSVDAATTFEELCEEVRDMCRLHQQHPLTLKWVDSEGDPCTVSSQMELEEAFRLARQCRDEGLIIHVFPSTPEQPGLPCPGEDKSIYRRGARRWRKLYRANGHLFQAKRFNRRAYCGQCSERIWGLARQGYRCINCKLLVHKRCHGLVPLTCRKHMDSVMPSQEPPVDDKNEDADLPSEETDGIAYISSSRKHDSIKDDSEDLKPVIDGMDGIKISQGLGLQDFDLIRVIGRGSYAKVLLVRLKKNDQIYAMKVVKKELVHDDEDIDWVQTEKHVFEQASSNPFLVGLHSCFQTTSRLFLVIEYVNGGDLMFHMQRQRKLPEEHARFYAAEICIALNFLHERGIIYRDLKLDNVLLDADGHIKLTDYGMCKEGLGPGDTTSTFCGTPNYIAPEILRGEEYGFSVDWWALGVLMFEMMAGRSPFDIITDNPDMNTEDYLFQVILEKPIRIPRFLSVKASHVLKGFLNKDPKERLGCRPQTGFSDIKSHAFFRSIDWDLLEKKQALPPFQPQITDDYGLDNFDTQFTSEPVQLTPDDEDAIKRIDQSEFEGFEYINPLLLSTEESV

[4] = target: Proto-oncogene tyrosine-protein kinase Src (Homo sapiens, UniProt P12931); assay: Inhibition of Src protein tyrosine kinase
[5] = target: T2, Protein kinase C epsilon type (Homo sapiens, UniProt Q02156); assay: Inhibition of Protein kinase C epsilon
T2 sequence (Q02156 whole entry): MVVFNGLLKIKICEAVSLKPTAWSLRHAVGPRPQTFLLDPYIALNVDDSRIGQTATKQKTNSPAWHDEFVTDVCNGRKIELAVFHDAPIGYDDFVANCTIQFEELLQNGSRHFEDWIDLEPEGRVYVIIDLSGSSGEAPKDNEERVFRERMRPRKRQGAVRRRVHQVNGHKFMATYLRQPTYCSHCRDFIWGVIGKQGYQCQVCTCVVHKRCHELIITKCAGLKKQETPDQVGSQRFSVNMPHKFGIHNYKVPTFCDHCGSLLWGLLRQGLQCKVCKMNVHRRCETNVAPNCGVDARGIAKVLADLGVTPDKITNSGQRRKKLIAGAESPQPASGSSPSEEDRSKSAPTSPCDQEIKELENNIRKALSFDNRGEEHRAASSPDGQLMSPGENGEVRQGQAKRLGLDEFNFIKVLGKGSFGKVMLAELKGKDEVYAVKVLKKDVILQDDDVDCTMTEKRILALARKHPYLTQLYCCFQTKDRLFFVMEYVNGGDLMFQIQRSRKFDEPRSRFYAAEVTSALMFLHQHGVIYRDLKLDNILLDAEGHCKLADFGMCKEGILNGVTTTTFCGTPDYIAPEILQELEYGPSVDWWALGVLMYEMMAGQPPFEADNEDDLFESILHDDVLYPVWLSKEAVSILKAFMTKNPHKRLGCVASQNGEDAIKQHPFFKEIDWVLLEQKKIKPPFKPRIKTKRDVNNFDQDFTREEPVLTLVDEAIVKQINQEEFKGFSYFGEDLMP

[6] = target: Protein kinase C eta type (Homo sapiens, UniProt P24723); assay: Inhibition of Protein kinase C eta
[7] = target: Protein kinase C gamma type (Homo sapiens, UniProt P05129); assay: Inhibition of Protein kinase C gamma
[8] = target: Protein kinase C alpha type (Homo sapiens, UniProt P17252); assay: Inhibition of Protein kinase C alpha
[9] = target: Protein kinase C delta type (Homo sapiens, UniProt Q05655); assay: Inhibition of Protein kinase C delta
[10] = target: T3, Protein kinase C beta type (Homo sapiens, UniProt P05771); assay: Inhibition of Protein kinase C beta 1
[11] = target: T3, Protein kinase C beta type; assay: Inhibition of Protein kinase C beta 2

T3 sequence (P05771 whole entry): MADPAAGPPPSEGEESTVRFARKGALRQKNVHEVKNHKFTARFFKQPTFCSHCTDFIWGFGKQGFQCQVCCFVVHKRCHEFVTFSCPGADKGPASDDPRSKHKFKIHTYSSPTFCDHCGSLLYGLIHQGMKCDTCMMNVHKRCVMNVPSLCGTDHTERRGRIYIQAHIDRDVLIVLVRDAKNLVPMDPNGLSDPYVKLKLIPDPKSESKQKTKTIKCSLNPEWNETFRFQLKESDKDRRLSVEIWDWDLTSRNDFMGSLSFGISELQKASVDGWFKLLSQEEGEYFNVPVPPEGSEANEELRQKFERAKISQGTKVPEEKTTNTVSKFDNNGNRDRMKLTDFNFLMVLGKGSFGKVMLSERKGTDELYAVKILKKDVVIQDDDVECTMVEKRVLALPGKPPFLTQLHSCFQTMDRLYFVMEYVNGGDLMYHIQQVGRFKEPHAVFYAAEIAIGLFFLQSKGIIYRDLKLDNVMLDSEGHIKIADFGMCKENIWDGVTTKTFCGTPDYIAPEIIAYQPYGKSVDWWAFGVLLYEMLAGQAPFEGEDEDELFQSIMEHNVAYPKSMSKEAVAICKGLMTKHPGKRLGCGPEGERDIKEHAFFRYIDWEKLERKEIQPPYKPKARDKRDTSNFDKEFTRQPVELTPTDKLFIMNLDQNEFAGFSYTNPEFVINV
Proto-oncogene tyrosine-protein kinase Src, sequence (P12931 2-536 limits assumed): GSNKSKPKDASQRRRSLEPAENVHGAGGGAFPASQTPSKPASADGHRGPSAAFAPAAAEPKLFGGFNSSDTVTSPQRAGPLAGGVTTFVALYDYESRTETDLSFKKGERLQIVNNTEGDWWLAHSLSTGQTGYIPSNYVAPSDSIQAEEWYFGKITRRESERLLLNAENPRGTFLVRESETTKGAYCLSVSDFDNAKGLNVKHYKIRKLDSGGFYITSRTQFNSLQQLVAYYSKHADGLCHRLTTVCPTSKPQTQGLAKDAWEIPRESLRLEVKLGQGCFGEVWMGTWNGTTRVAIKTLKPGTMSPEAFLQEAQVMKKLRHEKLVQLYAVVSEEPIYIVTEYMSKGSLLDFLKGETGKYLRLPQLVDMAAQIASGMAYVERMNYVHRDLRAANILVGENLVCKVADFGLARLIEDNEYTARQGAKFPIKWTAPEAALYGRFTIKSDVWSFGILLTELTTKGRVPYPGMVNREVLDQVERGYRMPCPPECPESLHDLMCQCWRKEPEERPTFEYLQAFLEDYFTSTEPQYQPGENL
Protein kinase C delta type, sequence (Q05655 whole entry): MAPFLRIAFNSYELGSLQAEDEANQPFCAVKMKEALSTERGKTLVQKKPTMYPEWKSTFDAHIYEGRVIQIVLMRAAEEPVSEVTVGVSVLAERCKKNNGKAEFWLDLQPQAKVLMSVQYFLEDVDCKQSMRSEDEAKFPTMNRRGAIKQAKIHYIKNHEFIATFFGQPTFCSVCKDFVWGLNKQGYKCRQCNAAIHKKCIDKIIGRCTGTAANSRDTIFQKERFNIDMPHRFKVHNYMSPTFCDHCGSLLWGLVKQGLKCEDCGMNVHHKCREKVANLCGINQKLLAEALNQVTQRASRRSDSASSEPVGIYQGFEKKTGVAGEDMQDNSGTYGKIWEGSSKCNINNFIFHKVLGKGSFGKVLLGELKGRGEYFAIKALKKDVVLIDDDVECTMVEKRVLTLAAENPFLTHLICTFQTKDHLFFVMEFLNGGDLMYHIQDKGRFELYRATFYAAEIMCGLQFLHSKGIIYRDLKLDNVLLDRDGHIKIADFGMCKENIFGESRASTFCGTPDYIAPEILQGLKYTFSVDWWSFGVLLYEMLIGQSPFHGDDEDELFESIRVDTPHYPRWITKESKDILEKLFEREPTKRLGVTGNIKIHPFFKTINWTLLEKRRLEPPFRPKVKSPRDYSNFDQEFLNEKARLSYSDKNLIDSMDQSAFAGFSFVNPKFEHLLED
Protein kinase C eta type, sequence (P24723 whole entry): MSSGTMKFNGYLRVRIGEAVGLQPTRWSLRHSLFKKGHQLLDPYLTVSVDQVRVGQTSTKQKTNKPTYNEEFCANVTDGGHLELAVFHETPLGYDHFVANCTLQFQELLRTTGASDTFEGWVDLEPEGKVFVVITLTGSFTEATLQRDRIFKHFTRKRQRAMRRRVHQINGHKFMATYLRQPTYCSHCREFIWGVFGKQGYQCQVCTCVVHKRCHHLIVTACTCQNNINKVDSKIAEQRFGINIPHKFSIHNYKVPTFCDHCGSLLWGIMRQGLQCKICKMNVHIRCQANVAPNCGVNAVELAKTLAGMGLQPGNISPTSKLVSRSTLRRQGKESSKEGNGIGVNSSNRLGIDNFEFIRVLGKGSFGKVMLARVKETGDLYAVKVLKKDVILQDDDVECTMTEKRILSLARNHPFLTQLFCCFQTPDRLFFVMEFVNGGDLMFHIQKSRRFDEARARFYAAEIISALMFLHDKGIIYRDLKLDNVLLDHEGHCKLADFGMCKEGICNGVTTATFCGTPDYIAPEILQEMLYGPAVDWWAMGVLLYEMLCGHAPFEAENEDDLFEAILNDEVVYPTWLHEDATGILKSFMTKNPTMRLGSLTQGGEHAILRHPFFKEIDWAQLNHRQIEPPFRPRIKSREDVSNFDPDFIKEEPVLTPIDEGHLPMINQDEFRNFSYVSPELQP

Cn1cc(C2=C(c3cn(C4CCN(Cc5ccccc5)CC4)c4ccccc34)C(=O)NC2=O)c2ccccc21
IC50 [1]: > 100 µM
IC50 (CaM kinase II): > 40 µM
IC50 [2]: > 40 µM
IC50 (Protein kinase C (PKC)): 4 µM
IC50 [3]: > 100 µM
IC50 [4]: > 100 µM

Cn1cc(C2=C(c3cn(C4CCN(Cc5ccccn5)CC4)c4ccccc34)C(=O)NC2=O)c2ccccc21 [ENZASTAURIN]
IC50 [1]: > 100 µM
IC50 [2]: > 100 µM
IC50 (Protein kinase C (PKC)): 0.7 µM

CN1CCC(n2cc(C3=C(c4c[nH]c5ccccc45)C(=O)NC3=O)c3ccccc32)CC1
IC50 [1]: 4 µM
IC50 (CaM kinase II): 3 µM
IC50 [2]: 91 µM
IC50 (Protein kinase C (PKC)): 0.2 µM
IC50 [4]: 83 µM

CN1CCC(n2cc(C3=C(c4cn(C)c5ccccc45)C(=O)NC3=O)c3ccccc32)CC1
IC50 [1]: 7 µM
IC50 [2]: > 100 µM
IC50 (Protein kinase C (PKC)): 0.2 µM
IC50 [4]: > 100 µM

Cn1cc(C2=C(c3cn(C4CCN(CC5CC5)CC4)c4ccccc34)C(=O)NC2=O)c2ccccc21
IC50 [1]: > 100 µM
IC50 [2]: > 100 µM
IC50 (Protein kinase C (PKC)): 0.3 µM
IC50 [4]: 68 µM

CN(C)C[C@@H]1CCn2cc(c3ccccc32)C2=C(C(=O)NC2=O)c2cn(c3ccccc23)CCO1
IC50 [1]: > 100 µM
IC50 [2]: > 100 µM

CC(C)N1CCC(n2cc(C3=C(c4cn(C)c5ccccc45)C(=O)NC3=O)c3ccccc32)CC1
IC50 [1]: > 100 µM
IC50 [2]: > 100 µM
IC50 (Protein kinase C (PKC)): 0.25 µM

CCN1CCC(n2cc(C3=C(c4cn(C)c5ccccc45)C(=O)NC3=O)c3ccccc32)CC1
IC50 [1]: 8 µM
IC50 [2]: > 100 µM
IC50 [4]: 11 µM

Cn1cc(C2=C(c3cn(C4CCN(C(=O)OC(C)(C)C)CC4)c4ccccc34)C(=O)NC2=O)c2ccccc21
IC50 [5]: 6 µM
IC50 [6]: 8 µM
IC50 [7]: 5 µM
IC50 [8]: 6 µM
IC50 [9]: 7 µM
IC50 [10]: 0.2 µM
IC50 [3]: > 100 µM
IC50 [11]: 0.08 µM

Cn1cc(C2=C(c3cn(C4CCN(Cc5ccccc5)C4)c4ccccc34)C(=O)NC2=O)c2ccccc21 (stereo unspecified)
IC50 [1]: > 100 µM
IC50 [5]: 9.4 µM
IC50 [6]: 0.042 µM
IC50 [7]: 3.5 µM
IC50 [8]: 3.8 µM
IC50 [9]: 4.2 µM
IC50 [10]: 0.022 µM
IC50 [2]: > 100 µM
IC50 (Protein kinase C (PKC)): 2.8 µM
IC50 [3]: > 100 µM
IC50 [11]: 0.024 µM

Cn1cc(C2=C(c3cn(C4CCNCC4)c4ccccc34)C(=O)NC2=O)c2ccccc21
IC50 [1]: 1 µM
IC50 [2]: > 100 µM
